Experimental findings from US11987588B2, “Modulators of the beta-3 adrenergic receptor useful for the treatment or prevention of heart failure and disorders related thereto” (Arena Pharmaceuticals, Inc., priority 2017, dated 2024) are described below.

A word on the IC50: it is the concentration at which inhibition is half-maximal.

The structures appear in SMILES notation.

Sequence of Beta-3 Adrenergic Receptor (P13945 whole entry, species assumed): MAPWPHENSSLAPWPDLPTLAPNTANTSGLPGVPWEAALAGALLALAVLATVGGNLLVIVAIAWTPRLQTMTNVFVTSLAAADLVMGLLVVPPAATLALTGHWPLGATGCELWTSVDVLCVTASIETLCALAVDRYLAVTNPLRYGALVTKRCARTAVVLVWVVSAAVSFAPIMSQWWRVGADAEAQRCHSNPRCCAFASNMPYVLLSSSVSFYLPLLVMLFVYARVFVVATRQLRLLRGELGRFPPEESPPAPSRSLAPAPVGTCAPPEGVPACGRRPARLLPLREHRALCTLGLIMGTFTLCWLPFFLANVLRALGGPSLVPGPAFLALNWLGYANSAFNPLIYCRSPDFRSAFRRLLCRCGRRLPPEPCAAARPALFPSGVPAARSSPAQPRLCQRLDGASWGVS

The test concerns the target Beta-3 Adrenergic Receptor (Homo sapiens (Human), UniProt P13945). In words: Homogeneous Time-Resolved Fluorescence (HTRF) cAMP antagonist assay, IC50 determination. Type of test: cell-based. To be noted: CHO-K1 cells stably expressing recombinant receptor, isoproterenol at EC90. The method in brief:
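In this functional readout, recombinant CHO-K1 cells received compound, then isoproterenol at its EC90. After 1 h at room temperature, cAMP levels were determined by HTRF using an on-plate standard curve, and IC50 values were fitted.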
(Time-resolved FRET reads energy transfer from a long-lived donor to a nearby acceptor.)
With `CNS(=O)(=O)c1cccc(OC[C@@H](O)CNC2COC3(CCN(S(=O)(=O)c4ccc(-c5ccc(CN)cc5)cc4)CC3)C2)c1` (stereo partly drawn) [Compound 382, 3-((2S)-3-(8-(4′-(aminomethyl)biphenyl-4-ylsulfonyl)-1-oxa-8-azaspiro[4.5]decan-3-ylamino)-2-hydroxypropoxy)-N-methylbenzenesulfonamide], the half-inhibitory concentration (IC50) came to 21 nM.
For the compound `CNS(=O)(=O)c1cccc(OC[C@@H](O)CNC2COC3(CCN(S(=O)(=O)c4ccc5c(c4)CCCO5)CC3)C2)c1` (stereo partly drawn) [Compound 41, 3-((2S)-3-(8-(chroman-6-ylsulfonyl)-1-oxa-8-azaspiro[4.5]decan-3-ylamino)-2-hydroxypropoxy)-N-methylbenzenesulfonamide], the IC50 was 6.82 nM.
Next, `Cc1cc(S(=O)(=O)N2CCC3(CC2)C[C@@H](NC[C@H](O)COc2cccc(S(N)(=O)=O)c2)CO3)ccc1Br` [Compound 590, 3-((S)-3-((R)-8-(4-bromo-3-methylphenylsulfonyl)-1-oxa-8-azaspiro[4.5]decan-3-ylamino)-2-hydroxypropoxy)benzenesulfonamide]: 17.4 nM.
`CNS(=O)(=O)c1cccc(OC[C@@H](O)CN[C@H]2COC3(CCN(S(=O)(=O)c4cnc5c(c4)CCO5)CC3)C2)c1` [Compound 504, 3-((S)-3-((R)-8-(2,3-dihydrofuro[2,3-b]pyridin-5-ylsulfonyl)-1-oxa-8-azaspiro[4.5]decan-3-ylamino)-2-hydroxypropoxy)-N-methylbenzenesulfonamide]: the IC50 was determined as 217 nM.
Next, `CNS(=O)(=O)c1cccc(OC[C@@H](O)CN[C@H]2COC3(CCN(S(=O)(=O)c4cnc5[nH]ncc5c4)CC3)C2)c1` [Compound 490, 3-((S)-3-((R)-8-(1H-pyrazolo[3,4-b]pyridin-5-ylsulfonyl)-1-oxa-8-azaspiro[4.5]decan-3-ylamino)-2-hydroxypropoxy)-N-methylbenzenesulfonamide]: 37.3 nM.
In the case of `CCn1ccc(=O)c(S(=O)(=O)N2CCC3(CC2)C[C@@H](NC[C@H](O)COc2cccc(S(N)(=O)=O)c2)CO3)c1` [Compound 587, 3-((S)-3-((R)-8-(1-ethyl-4-oxo-1,4-dihydropyridin-3-ylsulfonyl)-1-oxa-8-azaspiro[4.5]decan-3-ylamino)-2-hydroxypropoxy)benzenesulfonamide], the IC50 worked out at 2390 nM.
Consider `CNS(=O)(=O)c1cccc(OC[C@@H](O)CN[C@H]2COC3(CCN(S(=O)(=O)c4cnc5c(c4)NCCO5)CC3)C2)c1` [Compound 444, 3-((S)-3-((R)-8-(2,3-dihydro-1H-pyrido[2,3-b][1,4]oxazin-7-ylsulfonyl)-1-oxa-8-azaspiro[4.5]decan-3-ylamino)-2-hydroxypropoxy)-N-methylbenzenesulfonamide], for which the IC50 is 31.8 nM.
Regarding `CCn1cc(S(=O)(=O)N2CCC3(CC2)C[C@@H](NC[C@H](O)COc2cccc(S(=O)(=O)NC)c2)CO3)c(=O)c2cccc(C)c21` [Compound 545, 3-((S)-3-((R)-8-(1-ethyl-8-methyl-4-oxo-1,4-dihydroquinolin-3-ylsulfonyl)-1-oxa-8-azaspiro[4.5]decan-3-ylamino)-2-hydroxypropoxy)-N-methylbenzenesulfonamide], the IC50 amounted to 121 nM.
In the case of `CNS(=O)(=O)c1cccc(OC[C@@H](O)CN[C@H]2COC3(CCN(S(=O)(=O)c4cccc(-c5ccc(CN)cc5)c4)CC3)C2)c1` [Compound 289, 3-((S)-3-((R)-8-(4′-(aminomethyl)biphenyl-3-ylsulfonyl)-1-oxa-8-azaspiro[4.5]decan-3-ylamino)-2-hydroxypropoxy)-N-methylbenzenesulfonamide], the IC50 turned out to be 16.5 nM.
In the case of `CNS(=O)(=O)c1cccc(OC[C@@H](O)CNC2COC3(CCN(S(=O)(=O)c4ccccc4C(F)(F)F)CC3)C2)c1` (stereo partly drawn) [Compound 33, 3-((2S)-2-hydroxy-3-(8-(2-(trifluoromethyl)phenylsulfonyl)-1-oxa-8-azaspiro[4.5]decan-3-ylamino)propoxy)-N-methylbenzenesulfonamide], the IC50 was 17.6 nM.
For `CNS(=O)(=O)c1cccc(OC[C@@H](O)CNC2COC3(CCN(S(=O)(=O)c4ccc(OC)c5ccccc45)CC3)C2)c1` (stereo partly drawn) [Compound 258, 3-((2S)-2-hydroxy-3-(8-(4-methoxynaphthalen-1-ylsulfonyl)-1-oxa-8-azaspiro[4.5]decan-3-ylamino)propoxy)-N-methylbenzenesulfonamide], the IC50 worked out at 67.9 nM.
In the case of `CNS(=O)(=O)c1cccc(OC[C@@H](O)CN[C@H]2COC3(CCN(S(=O)(=O)c4cnc5c(c4)C(=O)NC5)CC3)C2)c1` [Compound 478, 3-((S)-2-hydroxy-3-((R)-8-(5-oxo-6,7-dihydro-5H-pyrrolo[3,4-b]pyridin-3-ylsulfonyl)-1-oxa-8-azaspiro[4.5]decan-3-ylamino)propoxy)-N-methylbenzenesulfonamide] it was 204 nM.
In the case of `CNS(=O)(=O)c1cccc(OC[C@@H](O)CN[C@H]2COC3(CCN(S(=O)(=O)c4cnc5c(c4)CNC5)CC3)C2)c1` [Compound 482, 3-((S)-3-((R)-8-(6,7-dihydro-5H-pyrrolo[3,4-b]pyridin-3-ylsulfonyl)-1-oxa-8-azaspiro[4.5]decan-3-ylamino)-2-hydroxypropoxy)-N-methylbenzenesulfonamide], the IC50 was 1510 nM.
Next, `CNS(=O)(=O)c1cccc(OC[C@@H](O)CNC2COC3(CCN(S(=O)(=O)c4ccccc4Br)CC3)C2)c1` (stereo partly drawn) [Compound 54, 3-((2S)-3-(8-(2-bromophenylsulfonyl)-1-oxa-8-azaspiro[4.5]decan-3-ylamino)-2-hydroxypropoxy)-N-methylbenzenesulfonamide]: 17.4 nM; `CNS(=O)(=O)c1cccc(OC[C@@H](O)CNC2COC3(CCN(S(=O)(=O)c4cccc(-c5ccc(NS(C)(=O)=O)cc5)c4)CC3)C2)c1` (stereo partly drawn) [Compound 86, 3-((2S)-2-hydroxy-3-(8-(4′-(methylsulfonamido)biphenyl-3-ylsulfonyl)-1-oxa-8-azaspiro[4.5]decan-3-ylamino)propoxy)-N-methylbenzenesulfonamide]: 9.36 nM; `Cc1ccc(F)c(S(=O)(=O)N2CCC3(CC2)CC(NC[C@H](O)COc2cccc(S(=O)(=O)NCCCN(C)C)c2)CO3)c1` (stereo partly drawn) [Compound 309, N-(3-(dimethylamino)propyl)-3-((2S)-3-(8-(2-fluoro-5-methylphenylsulfonyl)-1-oxa-8-azaspiro[4.5]decan-3-ylamino)-2-hydroxypropoxy)benzenesulfonamide]: 3000 nM.
Turning to `CNS(=O)(=O)c1cccc(OC[C@@H](O)CNC2COC3(CCN(S(=O)(=O)c4ccc5oncc5c4)CC3)C2)c1` (stereo partly drawn) [Compound 327, 3-((2S)-3-(8-(benzo[d]isoxazol-5-ylsulfonyl)-1-oxa-8-azaspiro[4.5]decan-3-ylamino)-2-hydroxypropoxy)-N-methylbenzenesulfonamide], the IC50 worked out at 92.1 nM.
Consider `CCNS(=O)(=O)c1cccc(OC[C@@H](O)CNC2COC3(CCN(S(=O)(=O)c4ccc5ccccc5c4)CC3)C2)c1` (stereo partly drawn) [Compound 101, N-ethyl-3-((2S)-2-hydroxy-3-(8-(naphthalen-2-ylsulfonyl)-1-oxa-8-azaspiro[4.5]decan-3-ylamino)propoxy)benzenesulfonamide], for which the IC50 came to 9.62 nM.
As to `CCN1CCOc2ccc(S(=O)(=O)N3CCC4(CC3)CC(NC[C@H](O)COc3cccc(S(=O)(=O)NC)c3)CO4)cc21` (stereo partly drawn) [Compound 333, 3-((2S)-3-(8-(4-ethyl-3,4-dihydro-2H-benzo[b][1,4]oxazin-6-ylsulfonyl)-1-oxa-8-azaspiro[4.5]decan-3-ylamino)-2-hydroxypropoxy)-N-methylbenzenesulfonamide], the IC50 stood at 9.02 nM.
`CNS(=O)(=O)c1cccc(OC[C@@H](O)CNC2COC3(CCN(S(=O)(=O)c4cccc(-c5ccc(CNCCOC)cc5)c4)CC3)C2)c1` (stereo partly drawn) [Compound 340, 3-((2S)-2-hydroxy-3-(8-(4′-((2-methoxyethylamino)methyl)biphenyl-3-ylsulfonyl)-1-oxa-8-azaspiro[4.5]decan-3-ylamino)propoxy)-N-methylbenzenesulfonamide]: the half-maximal inhibitory concentration (IC50) stood at 30.9 nM.
As to `CCCNS(=O)(=O)c1cccc(OC[C@@H](O)CNC2COC3(CCN(S(=O)(=O)c4ccc5ccccc5c4)CC3)C2)c1` (stereo partly drawn) [Compound 2, 3-((2S)-2-hydroxy-3-(8-(naphthalen-2-ylsulfonyl)-1-oxa-8-azaspiro[4.5]decan-3-ylamino)propoxy)-N-propylbenzenesulfonamide], the IC50 came out at 21.1 nM.
Next, `CNS(=O)(=O)c1cccc(OC[C@@H](O)CNC2COC3(CCN(S(=O)(=O)c4cccc(-c5cnn(CCO)c5)c4)CC3)C2)c1` (stereo partly drawn) [Compound 70, 3-((2S)-2-hydroxy-3-(8-(3-(1-(2-hydroxyethyl)-1H-pyrazol-4-yl)phenylsulfonyl)-1-oxa-8-azaspiro[4.5]decan-3-ylamino)propoxy)-N-methylbenzenesulfonamide]: 25.7 nM.
Take `CC(O)CNS(=O)(=O)c1cccc(OC[C@@H](O)CNC2COC3(CCN(S(=O)(=O)c4ccc5ccccc5c4)CC3)C2)c1` (stereo partly drawn) [Compound 46, 3-((2S)-2-hydroxy-3-(8-(naphthalen-2-ylsulfonyl)-1-oxa-8-azaspiro[4.5]decan-3-ylamino)propoxy)-N-(2-hydroxypropyl)benzenesulfonamide]: the IC50 came out at 54.1 nM.
Next, `CNS(=O)(=O)c1cccc(OC[C@@H](O)CN[C@H]2COC3(CCN(S(=O)(=O)c4cnc5[nH]cc(C#N)c5c4)CC3)C2)c1` [Compound 493, 3-((S)-3-((R)-8-(3-cyano-1H-pyrrolo[2,3-b]pyridin-5-ylsulfonyl)-1-oxa-8-azaspiro[4.5]decan-3-ylamino)-2-hydroxypropoxy)-N-methylbenzenesulfonamide]: 10.6 nM; `CNS(=O)(=O)c1cccc(OC[C@@H](O)CN[C@H]2COC3(CCN(S(=O)(=O)c4cnc5c(c4)OCCO5)CC3)C2)c1` [Compound 480, 3-((S)-3-((R)-8-(2,3-dihydro-[1,4]dioxino[2,3-b]pyridin-7-ylsulfonyl)-1-oxa-8-azaspiro[4.5]decan-3-ylamino)-2-hydroxypropoxy)-N-methylbenzenesulfonamide]: 75.3 nM.
